US20060134779A1, “Modulation of cell intrinsic strain to control cell modulus, matrix synthesis, secretion, organization, material properties and remodeling of tissue engineered constructs” (priority 2004, published 2006)
Entries after “also recorded” stand apart in the source; their conditions may differ.

Assays:
gel matrix = test: Gel matrix contraction in a culture system; assay type: cell-based
cell modulus = conditions: cited from earlier work
elastin = test: Quantitative RT-PCR gene expression in BATs: elastin; assay type: cell-based, human
Description: (§1) Primary human tendon internal fibroblasts (HTIFs) were isolated from discarded human tendon tissue as described previously (Banes et al., J. Ortho Res., 6, 73-82, 1988). HTIFs from passage 2 to 4 were used in this study. BATs™ were fabricated at a cell density of 2 million cells/ml collagen gel suspension (Vitrogen). Cells were incubated at 37° C. for 24 h before addition of 100 pM IL-1β and inhibitors. BAT™ images were recorded with a scanner and automated imaging software, ScanFlex™ (Flexcell International Corp.). Medium was refreshed every 24 h. On day 5, BATs™ were collected, total RNA extracted with an RNeasy mini kit (QIAGen), cDNA synthesized with SuperScriptII (Invitrogen) and quantitative PCR carried out using a quantitative PCR kit from Ambion. The PCR products were separated on 2% agarose gels and the bands were quantitated in Photoshop. The elasticity of BATs™ was tested on day 5. BATs™ were subjected to a maximum stretch (20% elongation, 1 Hz for 1 h) and the BAT™ images were recorded for 24 h after stretch.

[1] = test system: human tendon internal fibroblast (HTIF)-populated bioartificial tendons (BATs); test: Contraction of HTIF-populated BATs (scanner imaging); assay type: cell-based; conditions: 100 pM IL-1β, 24 h post addition
Description: as §1

[2] = test system: human tendon internal fibroblast (HTIF)-populated bioartificial tendons (BATs); test: Elasticity of BATs: length recovery after maximum stretch; assay type: cell-based; conditions: 100 pM IL-1β
Source text: In order to find a better therapeutic method for tendon/ligament repair and/or replacement, several in vitro models for engineered tendon have been developed recently (Awad et al., J. Biomed. Mater Res., 51(2), 233-240, 2000). One of them is a BioArtificial Tendon (BAT™) model system utilizing tenocyte-populated molded collagen gels (Awad et al., J. Biomed. Mater Res., 51(2), 233-240, 2000). This 3D BAT™ system allows the testing of tenocyte responses to drugs, cytokines and mechanical loading but is too weak to replace conventional grafts materials. In an attempt to modulate the material properties of the cell-gel composite, the influence of IL-1β on the elasticity of human tendon internal fibroblast (HTIF)-populated bioartificial tendons (BATs™) was investigated. IL-1β has been reported to increase the expression of matrix metalloproteinases (MMPs) and elastin. It was hypothesized that IL-1 might increase the elasticity of BATs™ by up-regulating the expression of elastin and down-regulating matrix protein (Collagen type I) expression. Gene expression was quantified with quantitative RT-PCR. The elasticity of BATs™ was determined by length recovery after stretch. The influence of IL-1β on the actin cytoskeleton and integrin attachment to matrix in BATs™ also was tested +/−cytochalasin D or GRGDTP, respectively.
as §1, with “BATs™ were fabricated at a cell density of 2 million cells/ml collagen gel suspension (Vitrogen). Cells were incubated at 37° C. for 24 h before addition of 100 pM IL-1β and inhibitors.” left out, “Medium was refreshed every 24 h.” left out, “The elasticity of BATs™ was tested on day 5.” left out

MMPs 1, 2, 3 = test: Quantitative RT-PCR gene expression in BATs: MMPs; assay type: cell-based, human; conditions: 100 pM IL-1β, day 5
Description: as §1

Collagen type I = test: Quantitative RT-PCR gene expression in BATs: Collagen type I; assay type: cell-based, human; conditions: 100 pM IL-1β, day 5
Description: as §1

[3] = test system: human tendon internal fibroblasts (HTIFs); test: Young's modulus of HTIFs by micropipette aspiration; assay type: cell-based; conditions: young and adult patients (FIG. 13)
Description: (§2) Primary HTIFs were isolated after surgery from discarded human tendon tissue as described previously (Banes et al., J. Ortho Res., 6, 73-82, 1988). HTIFs from passage 2 to 4 were used in this study. HTIFs were allowed to attach and spread for 24 h before addition of 100 pM IL-1β. Medium was refreshed every 24 h. On day 5, cells were collected for cell modulus measurement and gene expression analysis. Young's modulus of HTIFs was measured by aspirating a cell into the bore of a calibrated micropipette with a calibrated vacuum source. The cell-aspiration process was videotaped for subsequent data analysis to calculate the pipette bore size, the steady state pressure required to aspirate a segment of a cell into the pipette bore and the time constant for aspiration. Cytoskeleton change was monitored by rhodamine-phalloidin staining. The expression levels of β-actin was determined by quantitative RT-PCR. Total RNA was extracted with an RNeasy mini kit (QIAGen), cDNA was synthesized with SuperScriptII (Invitrogen) and quantitative PCR was carried out using 18S rRNA as an internal control (Ambion). The PCR products were separated on 2% agarose gels and pixel intensity of the bands was quantitated in Photoshop.

β-actin [4] = test: β-actin expression by quantitative RT-PCR in HTIFs; assay type: cell-based, human; conditions: for reduction of the message of β-actin: 24 h post addition
Description: as §2, with “On day 5, cells were collected for cell modulus measurement and gene expression analysis.” left out

β-actin [5] = test: Cytoskeleton change by rhodamine-phalloidin staining in HTIFs; assay type: cell-based, human; conditions: 100 pM IL-1β
Description: as §2

[6] = test system: human tendon internal fibroblast (HTIF) populated bioartificial tendons (BATs); test: Material properties (modulus) of HTIF-populated BATs; assay type: cell-based
[7] = 20% elongation, 1 Hz for 1 h, day 5

With Nc1ncnc2c1ncn2[C@@H]1O[C@H](COP(=O)(O)OP(=O)(O)OP(=O)(O)O)[C@@H](O)[C@H]1O [ATP, adenosine triphosphate] the gel matrix contraction (gel matrix) was “retard”.
For C=C1[C@@H](C)[C@H]2[C@H](Cc3ccccc3)NC(=O)[C@]23[C@H](OC(C)=O)/C=C/[C@@](C)(O)C(=O)[C@@H](C)C/C=C/[C@H]3[C@@H]1O [cytochalasin D], the “decrease of cell modulus” value (cell modulus) is listed as “up to three fold”.
With GRGDTP the “elastin mRNA level” value (elastin; 100 μg/ml GRGDTP alone) was “did not affect” and the “stimulation of elastin mRNA by IL-1” value (elastin; 100 μg/ml GRGDTP with 100 pM IL-1β) was “reduced”.
For interleukin-1beta [IL-1β], the “contraction of BATs” value [1] was “reduced”, the “elasticity of BATs” value ([2]; tested on day 5) was “increased” and the “survival of maximum stretch” value [2, 7] was “survived”. For the same compound, the “time for elongated BATs to recover to original length post stretch” value [2, 7] was 8 h, the “expression of MMPs 1, 2, 3” value (MMPs 1, 2, 3) was “up-regulated; also recorded: up-regulation” and the expression of elastin (elastin; 100 pM IL-1β, day 5) was “up-regulated”. For the same compound, the “expression of Collagen type I” value (Collagen type I) was “down-regulated”, the “cell modulus of monolayer HTIFs” value [3] was “reduced” and the “reduction of the message of β-actin” value (β-actin [4]; 100 pM IL-1β, 2D cultures) was “more than 50%”. For the same compound, the “reduction of the message of β-actin” value (β-actin [4]; 100 pM IL-1β, 3D cultures) was “more than 50%”, the “message level of β-actin” value (β-actin [4]; 100 pM IL-1β, day 3, 3D cultures) was “returned to normal” and the “expression of β-actin” value (β-actin [4]; 2D cultures, days 1 and 3 (FIG. 14A)) was “reduced”. For the same compound, the “cells with cytoskeletal structure disrupted” value (β-actin [5]; 2D cultures) was “about 20%”, the “protein level of β-actin” value (β-actin [5]; 2D cultures, day 3) was “further reduced” and the “protein level of β-actin” value (β-actin [5]; 2D cultures, day 5) was “mostly recovered”. The “increase of intercellular space at the perpendicular direction of BATs” value (β-actin [5]; 3D BATs, days 1 and 3) was “more than 100%”, the “fluorescence intensity of rhodamine-phalloidin staining compared to control” value (β-actin [5]; 3D bioartificial tendons, day 5) was “much lower” and the “protein level of β-actin” value (β-actin [5]; rhodamine-phalloidin staining) was “down regulated”. The “modulus of BATs” value [6] was “reduced”.
